In patent publication US11608335B2, “Somatostatin modulators and uses thereof” (CRINETICS PHARMACEUTICALS, INC., priority 2018, dated 2023):
Read-outs that look alike come from different tables or passages of the source.

Assays:
[1] = biological target: T1, human somatostatin receptor subtype 2 (Homo sapiens, UniProt P30874); experiment: cAMP assay for SST2R (inhibition of cAMP via human SST2 receptor); assay type: cell-based; conditions: Table B, read-out: SST2 potency
T1 construct: expressed in transfected cells
T1 sequence (P30874 whole entry): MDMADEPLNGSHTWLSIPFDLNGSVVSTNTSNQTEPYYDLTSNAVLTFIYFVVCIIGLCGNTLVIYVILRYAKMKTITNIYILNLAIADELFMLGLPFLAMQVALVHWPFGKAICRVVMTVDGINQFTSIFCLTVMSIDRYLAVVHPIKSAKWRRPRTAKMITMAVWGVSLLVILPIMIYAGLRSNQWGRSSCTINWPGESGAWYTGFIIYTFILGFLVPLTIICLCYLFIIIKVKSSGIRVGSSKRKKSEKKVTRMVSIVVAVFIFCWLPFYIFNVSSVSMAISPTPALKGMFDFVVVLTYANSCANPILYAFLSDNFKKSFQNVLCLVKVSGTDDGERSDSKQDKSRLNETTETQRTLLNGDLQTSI
From the text: cAMP Assay Protocol for SST2R:

[2] = biological target: human somatostatin receptor subtype 5 (Homo sapiens, UniProt P35346); experiment: cAMP assay for SST5R (inhibition of cAMP via human SST5 receptor); conditions: for Fold selectivity for SST5 vs SST2: SST5 over SST2, class symbols
human somatostatin receptor subtype 5, sequence (P35346 whole entry): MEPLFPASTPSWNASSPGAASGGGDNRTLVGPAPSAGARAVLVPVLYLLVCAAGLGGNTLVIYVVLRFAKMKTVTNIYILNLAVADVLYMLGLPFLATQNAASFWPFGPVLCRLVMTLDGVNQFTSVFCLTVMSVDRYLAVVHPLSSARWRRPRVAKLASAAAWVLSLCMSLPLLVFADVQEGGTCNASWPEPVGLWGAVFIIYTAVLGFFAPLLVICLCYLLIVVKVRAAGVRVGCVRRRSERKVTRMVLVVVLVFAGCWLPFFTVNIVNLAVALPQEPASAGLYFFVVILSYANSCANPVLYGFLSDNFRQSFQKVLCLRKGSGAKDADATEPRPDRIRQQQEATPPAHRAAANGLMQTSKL

[3] = read-out: SST5 potency, inhibition of cAMP via human SST5 receptor, Table B

| Compound | EC50 [1] [nM] | EC50 [2] [nM] | Fold selectivity for SST5 vs SST2 [2] | EC50 [2, 3] [nM] |
| --- | --- | --- | --- | --- |
| N#Cc1cc(-c2cncc(-c3nc4cccc(F)c4[nH]3)c2N2CC[C@H](N)C2)ccc1Cl [Compound 2-39, 5-{4-[(3S)-3-aminopyrrolidin-1-yl]-5-(4-fluoro-1H-1,3-benzodiazol-2-yl)pyridin-3-yl}-2-chlorobenzonitrile] | 100 to 1000 | < 10 | ++ (++=100 to 499) | < 10 |
| NC(=O)c1cccc(-c2cncc(-c3nc4c(F)ccc(F)c4[nH]3)c2N2CC[C@H](N)C2)c1 [Compound 2-43, 3-{4-[(3S)-3-aminopyrrolidin-1-yl]-5-(4,7-difluoro-1H-1,3-benzodiazol-2-yl)pyridin-3-yl}benzamide] | > 1000 | 10 to 100 | +++ (+++=≥500) | 10 to 100 |
| N#Cc1cc(-c2cncc(-c3nc4c(F)ccc(F)c4[nH]3)c2N2CC[C@H](N)C2)ccc1F [Compound 2-44, 5-{4-[(3S)-3-aminopyrrolidin-1-yl]-5-(4,7-difluoro-1H-1,3-benzodiazol-2-yl)pyridin-3-yl}-2-fluorobenzonitrile] | 100 to 1000 | < 10 | +++ (+++=≥500) | < 10 |
| N#Cc1cccc(-c2cncc(-c3nc4c(F)cccc4[nH]3)c2N2CCC(N)(CO)C2)c1 (stereo not drawn) [Compound 2-54, 3-{4-[3-amino-3-(hydroxymethyl)pyrrolidin-1-yl]-5-(4-fluoro-1H-1,3-benzodiazol-2-yl)pyridin-3-yl}benzonitrile] | 100 to 1000 | < 10 | +++ (+++=≥500) | < 10 |
| N#Cc1cccc(-c2cncc(-c3nc4cccc(Br)c4[nH]3)c2N2CC[C@H](N)C2)c1 [Compound 2-57, 3-{4-[(3S)-3-aminopyrrolidin-1-yl]-5-(4-bromo-1H-1,3-benzodiazol-2-yl)pyridin-3-yl}benzonitrile] | 100 to 1000 | < 10 | +++ (+++=≥500) | < 10 |
| N#Cc1cc(-c2cncc(-c3nc4cccc(C(F)(F)F)c4[nH]3)c2N2CC[C@H](N)C2)ccc1F [Compound 2-60, 5-{4-[(3S)-3-aminopyrrolidin-1-yl]-5-[4-(trifluoromethyl)-1H-1,3-benzodiazol-2-yl]pyridin-3-yl}-2-fluorobenzonitrile] | 100 to 1000 | < 10 | ++ (++=100 to 499) | < 10 |
| Cn1c(-c2cncc(-c3cccc(C#N)c3)c2N2CC[C@H](N)C2)nc2cccc(Cl)c21 [Compound 2-76, 3-{4-[(3S)-3-aminopyrrolidin-1-yl]-5-(7-chloro-1-methyl-1H-1,3-benzodiazol-2-yl)pyridin-3-yl}benzonitrile] | 100 to 1000 | < 10 | +++ (+++=≥500) | < 10 |
| Cc1ccc(F)c2[nH]c(-c3cncc(-c4ccnc(C#N)c4)c3N3CC[C@H](N)C3)nc12 [Compound 2-106, 4-[(3S)-3-aminopyrrolidin-1-yl]-5-(7-fluoro-4-methyl-1H-1,3-benzodiazol-2-yl)-[3,4′-bipyridine]-2′-carbonitrile] | 100 to 1000 | < 10 | +++ (+++=≥500) | < 10 |
| Cc1ccnc2nc(-c3cncc(-c4cc(F)cc(C#N)c4)c3N3CCC(C)(N)C3)[nH]c12 (stereo not drawn) [Compound 2-108, 3-[4-(3-amino-3-methylpyrrolidin-1-yl)-5-{7-methyl-1H-imidazo[4,5-b]pyridin-2-yl}pyridin-3-yl]-5-fluorobenzonitrile] | 100 to 1000 | < 10 | ++ (++=100 to 499) | < 10 |
| CC1(N)CCN(c2c(-c3ccnc(C#N)c3)cncc2-c2nc3cccc(F)c3[nH]2)C1 (stereo not drawn) [Compound 2-121, 4-(3-amino-3-methylpyrrolidin-1-yl)-5-(4-fluoro-1H-1,3-benzodiazol-2-yl)-[3,4′-bipyridine]-2′-carbonitrile] | 100 to 1000 | < 10 | +++ (+++=≥500) | < 10 |
| Cc1ccnc2nc(-c3cncc(-c4cccc(C#N)c4)c3N3CCC(C)(N)C3)[nH]c12 (stereo not drawn) [Compound 2-122, 3-[4-(3-amino-3-methylpyrrolidin-1-yl)-5-{7-methyl-1H-imidazo[4,5-b]pyridin-2-yl}pyridin-3-yl]benzonitrile] | 100 to 1000 | < 10 | ++ (++=100 to 499) | < 10 |
| Cc1cccc2nc(-c3cncc(-c4ccnc(C#N)c4)c3N3CCC(C)(N)C3)[nH]c12 (stereo not drawn) [Compound 2-123, 4-(3-amino-3-methylpyrrolidin-1-yl)-5-(4-methyl-1H-1,3-benzodiazol-2-yl)-[3,4′-bipyridine]-2′-carbonitrile] | 10 to 100 | < 10 | +++ (+++=≥500) | < 10 |
| Cc1cccc2nc(-c3cncc(-c4ccc(F)c(C(N)=O)c4)c3N3CCC(C)(N)C3)[nH]c12 (stereo not drawn) [Compound 2-124, 5-[4-(3-amino-3-methylpyrrolidin-1-yl)-5-(4-methyl-1H-1,3-benzodiazol-2-yl)pyridin-3-yl]-2-fluorobenzamide] | 100 to 1000 | < 10 | +++ (+++=≥500) | < 10 |
| Cc1ccc(F)c2nc(-c3cncc(-c4ccc(F)c(C(N)=O)c4)c3N3CCC(C)(N)C3)[nH]c12 (stereo not drawn) [Compound 2-125, 5-[4-(3-amino-3-methylpyrrolidin-1-yl)-5-(7-fluoro-4-methyl-1H-1,3-benzodiazol-2-yl)pyridin-3-yl]-2-fluorobenzamide] | 100 to 1000 | < 10 | +++ (+++=≥500) | < 10 |

Continued, values first:

| EC50 [1] [nM] | EC50 [2] [nM] | Fold selectivity for SST5 vs SST2 [2] | EC50 [2, 3] [nM] | Compound |
| --- | --- | --- | --- | --- |
| 100 to 1000 | < 10 | +++ (+++=≥500) | < 10 | Cc1cccc2nc(-c3cncc(-c4ccc(F)c(C#N)c4)c3N3CC[C@H](N)C3)[nH]c12 [Compound 2-37, 5-{4-[(3S)-3-aminopyrrolidin-1-yl]-5-(4-methyl-1H-1,3-benzodiazol-2-yl)pyridin-3-yl}-2-fluorobenzonitrile] |
| 100 to 1000 | < 10 | +++ (+++=≥500) | < 10 | N#Cc1cc(F)cc(-c2cncc(-c3nc4c(F)ccc(F)c4[nH]3)c2N2CC[C@H](N)C2)c1 [Compound 2-38, 3-{4-[(3S)-3-aminopyrrolidin-1-yl]-5-(4,7-difluoro-1H-1,3-benzodiazol-2-yl)pyridin-3-yl}-5-fluorobenzonitrile] |
| 100 to 1000 | < 10 | ++ (++=100 to 499) | < 10 | Cc1ccc(-c2cncc(-c3nc4c(F)ccc(F)c4[nH]3)c2N2CC[C@H](N)C2)cc1C#N [Compound 2-49, 5-{4-[(3S)-3-aminopyrrolidin-1-yl]-5-(4,7-difluoro-1H-1,3-benzodiazol-2-yl)pyridin-3-yl}-2-methylbenzonitrile] |
| 100 to 1000 | < 10 | +++ (+++=≥500) | < 10 | N#Cc1cc(-c2cncc(-c3nc4ccc(F)c(F)c4[nH]3)c2N2CC[C@H](N)C2)ccc1F [Compound 2-52, 5-{4-[(3S)-3-aminopyrrolidin-1-yl]-5-(4,5-difluoro-1H-1,3-benzodiazol-2-yl)pyridin-3-yl}-2-fluorobenzonitrile] |
| 100 to 1000 | < 10 | ++ (++=100 to 499) | < 10 | Cc1cccc2nc(-c3cncc(-c4cc(F)cc(C(N)=O)c4)c3N3CC[C@H](N)C3)[nH]c12 [Compound 2-65, 3-{4-[(3S)-3-aminopyrrolidin-1-yl]-5-(4-methyl-1H-1,3-benzodiazol-2-yl)pyridin-3-yl}-5-fluorobenzamide] |
| 100 to 1000 | < 10 | ++ (++=100 to 499) | < 10 | Cc1cc(F)cc2nc(-c3cncc(-c4cc(F)cc(C#N)c4)c3N3CC[C@H](N)C3)[nH]c12 [Compound 2-79, 3-{4-[(3S)-3-aminopyrrolidin-1-yl]-5-(6-fluoro-4-methyl-1H-1,3-benzodiazol-2-yl)pyridin-3-yl}-5-fluorobenzonitrile] |
| 100 to 1000 | < 10 | +++ (+++=≥500) | < 10 | Cc1cccc2nc(-c3cncc(-c4cccc(C#N)c4)c3N3CC[C@H](N)C3)[nH]c12 [Compound 2-80, 3-{4-[(3S)-3-aminopyrrolidin-1-yl]-5-(4-methyl-1H-1,3-benzodiazol-2-yl)pyridin-3-yl}benzonitrile] |
| 100 to 1000 | < 10 | ++ (++=100 to 499) | < 10 | Cc1c(F)ccc2nc(-c3cncc(-c4cc(F)cc(C#N)c4)c3N3CC[C@H](N)C3)[nH]c12 [Compound 2-86, 3-{4-[(3S)-3-aminopyrrolidin-1-yl]-5-(5-fluoro-4-methyl-1H-1,3-benzodiazol-2-yl)pyridin-3-yl}-5-fluorobenzonitrile] |
| 100 to 1000 | < 10 | ++ (++=100 to 499) | < 10 | N#Cc1cc(F)cc(-c2cncc(-c3nc4ccccc4[nH]3)c2N2CC[C@H](N)C2)c1 [Compound 2-109, 3-{4-[(3S)-3-aminopyrrolidin-1-yl]-5-(1H-1,3-benzodiazol-2-yl)pyridin-3-yl}-5-fluorobenzonitrile] |
| > 1000 | < 10 | +++ (+++=≥500) | < 10 | Cn1c(-c2cncc(-c3cc(F)cc(C#N)c3)c2N2CC[C@H](N)C2)nc2c(Cl)cccc21 [Compound 2-116, 3-{4-[(3S)-3-aminopyrrolidin-1-yl]-5-(4-chloro-1-methyl-1H-1,3-benzodiazol-2-yl)pyridin-3-yl}-5-fluorobenzonitrile] |
